Laboratory results from patent publication US8222231B2, “Derivatives of partially desulphated glycosaminoglycans endowed with antiangiogenic activity and devoid of anticoagulating effect” (Sigma-Tau Industrie Farmaceutiche Riunite SpA, priority 2000, dated 2012).

What was measured:
[1] = molecular target: T1, FGFR/FGF2/HSPG ternary complex (Homo sapiens, UniProt P09038); assay: Inhibition of FGF2-mediated intercellular adhesion of CHO-K1 and CHO-745flg cells; format: cell-based, Chinese hamster
T1 construct: expressed in transfected cells; host or cells: CHO 745/flg (HSPG-deficient CHO mutants transfected with FGFR-1); fixed CHO-K1 monolayer supplies HSPGs; FGF-2 added to the medium
T1 sequence (P09038 143-288, one chain of several): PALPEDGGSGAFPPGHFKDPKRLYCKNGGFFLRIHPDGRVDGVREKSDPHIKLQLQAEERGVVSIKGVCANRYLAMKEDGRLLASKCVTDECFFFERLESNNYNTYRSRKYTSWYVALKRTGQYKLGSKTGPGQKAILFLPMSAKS
Source text: To this end an in-vitro model was designed capable of assessing the interference of the various different heparin derivatives with bFGF binding to its own receptor.
These latter cells were stably transfected with cDNA for green fluorescent protein and for this reason could be observed under the fluorescence microscope with a combination of filters for the detection of green emission. In brief, the technique is based on the possibility that the two types of cells may interact (form stable bonds) only if FGF is added to the two cell types. In fact, in this case, the heparan sulphates of the CHO-745flg cells will bind to FGF, which in turn will bind to the CHO-K1 cells, establishing a bridge. The binding that occurs is detectable as a result of the green fluorescence emitted by the CHO-745flg cells.
CHO-K1 cells were seeded at a density of 90,000 cells/cm2 in 24-well plates. After 24 hours the cells were fixed in 3% glutaraldehyde in PBS for 2 hours at 4° C. and washed with 0.1 M glycine/PBS. […] After 2 hours' incubation at 37° C., the adhering cells were counted under the inverted microscope. The results were expressed as percentage of the number of cells adhering compared to those measured in the absence of the test compounds. […]

[2] = system: chick embryo chorioallantoic membrane; assay: Angiostatic activity on chick embryo chorioallantoic membrane (CAM) model; conditions: in vivo
Protocol: For the study of angiogenesis the model used was the chick embryo chorioallantoic membrane model (Ribatti e al. Int. J. Dev. Biol., 40, 1189 (1996)).
300 embryonated hens' eggs were incubated at 37° C. in constant humidity conditions. On the 3rd day of incubation, after aspirating 2-3 ml of albumen from the acute pole of the egg so as to detach the CAM from the shell, a window was cut with scissors in the shell. The vessels underlying the CAM were thus exposed. The window was closed with a transparent glass panel and the eggs were put back into the incubator. […] The experiments were discontinued on the 12th day of incubation, when an overall assessment of the angiogenic activity of the molecules was carried out, expressed as percentage inhibition in relation to the number of experiments initiated and completed (Table 9). In addition, for compound ST1514, assayed at the concentration of 100 μg/embryo, a macroscopic quantitative evaluation of the angiostatic activity was also carried out according to the technique proposed by Brooks et al. (Science, 264, 569, (1994)), counting the number of vessels surrounding the sponge. […]

[3] = system: CAM; conditions: in the presence of corticosteroids; compared with heparin; cited from earlier work
[4] = Evaluation of heparin toxicity in Balb/c mice; format: in vivo; conditions: 50 mg/kg and 25 mg/kg subcutaneously, q2dx5
Protocol: 20 6-week-old female Balb/c mice weighing 20 g (Harlan), divided into groups by casual randomisation, were treated with heparin sodium, as a reference, and with the compound according to the present invention called STI514. The treatment schedule was of the q2dx5 type, i.e. 5 total administrations at intervals of 2 days, administering 200 μl/mouse of 50 mg/kg/10 ml and 25 mg/kg/10 ml solutions subcutaneously.
Heparin sodium: the solution is prepared by solubilizing 160 mg of powder in 4 ml of PBS 1× pH 7.4 free of Ca^++-and Mg^++-ions; it is subdivided into aliquots of 243 μl and stored at −20° C. At the time of treatment, the solution is diluted in Ca^++-and Mg^++-free PBS (Dulbecco, modified formula) 1×, pH 7.4 so as to have the substance at final concentrations of 50 mg/kg/10 ml and 25 mg/kg/10 ml.
ST1514: the solution is prepared by solubilizing 160 mg of powder in 4 ml of Ca^++-and Mg^++-free PBS 1×, pH 7.4; it is subdivided into aliquots of 243 μl and stored at −20° C. […]
Full blood count: the appliance (Cell Analyzer 580 A, DELCON) is used according to the standard procedure described in the operating manual. […] This solution is used for the WBC reading. Solution B, on the other hand, is used for the RBC and platelet (PLT) readings. Each sample is read in duplicate.
The data obtained will be analyzed using ANOVA.

Q: What does the source list for Heparin?
A: Cell-Cell Adh. (ID50, ng/mL), inhibition of FGF2-mediated cell-cell adhesion [1]: 100 ng/mL; Angiostatic activity on CAM model (stated in words) [2]: no activity

Q: With 2-O-desulfated heparin as the substance, how does the “antiangiogenic activity as assessed by means of the CAM test” value [3] read?
A: partly maintained the antiangiogenic activity of heparin

Q: For heparin sodium, which “liver characteristics at autopsy” value [4] is on record?
A: livers with abnormal characteristics
